Test results reported in patent publication US20220142995A1, “DUAL ATM AND DNA-PK INHIBITORS FOR USE IN ANTI-TUMOR THERAPY” (XRAD Therapeutics, Inc., priority 2019, published 2022).
Several values for one entry are separate records, joined by “and”; a condition that tells them apart may be missing. Equal entries are not always repeated. Structures can show the parent of a compound that is named as a salt.

Columns and labels:
ATM = biological target: T1, ATM (Homo sapiens, UniProt Q13315); assay: ATM in Cell Western assay (pKAP1, etoposide-treated MCF-7 cells); type: cell-based; settings: etoposide 100 μM, 1 h, pKAP1 readout
T1 construct: endogenous in cells; host or cells: MCF-7
Method: ATM in Cell Western Assay:
In the morning, MCF-7 breast cancer cells were placed in a 384 well plate at the density of 10,000 cells/well (Corning, #356663), 25 μL cells per well. The following day, compounds were added to the plate using a pin tool (Echo 550) to a final concentration of 1 μM through a 3-fold serial dilution (a total of 10 doses). Then, etoposide (Sigma, #E1383) was added to a final concentration of 100 μM. The plate was incubated at 37° C. for 1 h, and the cells were fixed by the addition of 25 μL of fixing solution (8% paraformaldehyde) for 20 minutes at ambient temperature. Cells were permeabilized by 5 washes with 1×PBS (phosphate buffered saline) containing 0.1% Triton X-100; each wash was 5 minutes long. Cells were blocked by adding 50 μL of Odyssey Blocking Buffer (LI-COR, #927-40000) in 384 well plates for 1.5 hours with shaking at ambient temperature. Blocking buffer was then removed, and 20 μL of anti-pKAP1 antibody (Bethyl Laboratories, #A300-767A) (1/2000) solution were added to each well of 384-well plate. The plate was incubated overnight at 4° C. and then washed 5 times with 1×PBST (1×PBS containing 0.1% Tween-20). A secondary antibody (IRDye 800CW Goat anti-Rabbit IgG, LI-COR, #926-32211) (1/5,000) solution containing DNA stain DRAQ5 (CST, #4084L) (1/5,000) (20 μL) was added to each well in the plate, and the plate was incubated 1 hour with gentle shaking in the dark. Cells were washed 5 times with 1×PBST (1×PBS containing 0.1% Tween-20) at ambient temperature with gentle shaking in the dark. After the last wash, the wash solution was removed, the plate was inverted upside down onto a thin paper towel and centrifuged at 1000 rpm for 1 min to absorb all wash buffer. The bottom of the plate was cleaned with a moist, lint-free paper. The plate was immediately scanned using ODYSSEY CLx (LI-COR).

DNA-PK = biological target: T2, DNA-PK (Homo sapiens, UniProt P78527); assay: DNA-PK enzyme-linked immunosorbent assay; type: biochemical; settings: ATP 20 μM, GST-p53 substrate
T2 construct: purchased Invitrogen PR9107A
Method: DNA-PK Enzyme-Linked Immunosorbent Assay:
On day one, a 96-well plate (ThermoFisher, Cat #: 442404) was coated with GST-p53 (1-101) peptide (purified by Pharmaron, BCS department) by diluting 3 μg of GST-p53 in each well with 0.1 M Na2CO3/NaHCO3 (pH 9.6). The plate was incubated overnight at 4° C. On the second day, the coating buffer was removed, and the plate was washed twice with PBST (1×PBS containing 0.1% Tween-20). The DNA-PK enzyme solution (Invitrogen, #PR9107A; the final DNA-PK concentration: 0.1 μg/mL) was then added. The compounds were serially diluted to the final maximal concentration of 100 nM (3 fold series dilution, a total of 10 doses), and an ATP solution (the final ATP concentration: 20 μM) was added to the plate. Incubate the plate at 25° C. for 1 hour. The plate was washed three times with PBST (1×PBS containing 0.1% Tween-20) and blocked with a solution of PBST and 1% BSA at 4° C. overnight. The third day, the plate was washed four times with PBST (1×PBS containing 0.1% Tween-20). Anti-phospho-p53 primary antibody (cell signaling Technology, #9286, Phospho-p53 (Ser15) (16G8) Mouse mAb) (1/1000) was added to each well. The plate was sealed, incubated 1 h at 37° C., and washed four times with PBST (1×PBS containing 0.1% Tween-20). An HRP-linked secondary antibody (Cell signaling Technology, #7076, Anti-mouse IgG, HRP-linked Antibody) (1/1000) (100 μL) was added to each well. The plate was sealed with tape, incubated 30 min at 37° C., and washed four times with PBST (1×PBS containing 0.1% Tween-20). At this time, 100 μL of TMB (Cell signaling Technology, #7004) substrate were added to each well. The plate was sealed with tape and incubated the plate 10 min at 37° C. Stop solution (Cell signaling Technology, #7002) (100 μL) was added to each well, and the plate was subjected to the absorption detection at 450 nm.

PI3Kα = biological target: T3, PI3Kα (Homo sapiens, UniProt P42336); assay: PI3Kα biochemical assay (ADP-Glo); settings: first value of PI3K-α/δ cell; ATP 10 μM
T3 construct: purchased ThermoFisher PV4788
Method: (§1) PI3Kα and PI3Kδ Biochemical Assay:
(§2) PI3K[…] and PI3K[…] Kinase reactions were performed in a 5 μL volume in low-volume 384-well plates. Typically, PerkinElmer model 6008280 plates were used. The 1× kinase reaction buffer consisted of 50 mM HEPES pH 7.5, 3 mM MgCl2, 0.03% CHAPS, 1 mM EGTA, 100 mM NaCl, and 2 mM DTT. PI3K[…] (ThermoFisher, #PV4788; the final PI3K[…] concentration: 120 ng/mL) or PI3K[…] enzyme solution (ThermoFisher, #PV6451; the final PI3K[…] concentration: 250 ng/mL) was added to the plate, compounds were serially diluted to the final maximal concentration of 100 nM (3 fold series dilution, a total of 10 doses), and the PIP2:3PS (the final concentration: 10 µg/mL) and ATP solution (the final ATP concentration: 10 μM) was added to the 384-well plate. The plate was incubated at 25° C. for 1 hour. ADP-Glo reagent buffer (5 μL) was added to each well. The plate was sealed and incubated for 40 min at 25° C. ADP-Glo detection buffer (10 μL) was added to each well, and the plate was incubated for 40 min at 25° C. and read on a plate reader configured for Luminescence.

PI3Kδ = biological target: T4, PI3Kδ (Homo sapiens, UniProt O00329); assay: PI3Kδ biochemical assay (ADP-Glo); settings: second value of PI3K-α/δ cell; ATP 10 μM
T4 construct: purchased ThermoFisher PV6451
Method: as §1, §2

T1 sequence (Q13315 whole entry): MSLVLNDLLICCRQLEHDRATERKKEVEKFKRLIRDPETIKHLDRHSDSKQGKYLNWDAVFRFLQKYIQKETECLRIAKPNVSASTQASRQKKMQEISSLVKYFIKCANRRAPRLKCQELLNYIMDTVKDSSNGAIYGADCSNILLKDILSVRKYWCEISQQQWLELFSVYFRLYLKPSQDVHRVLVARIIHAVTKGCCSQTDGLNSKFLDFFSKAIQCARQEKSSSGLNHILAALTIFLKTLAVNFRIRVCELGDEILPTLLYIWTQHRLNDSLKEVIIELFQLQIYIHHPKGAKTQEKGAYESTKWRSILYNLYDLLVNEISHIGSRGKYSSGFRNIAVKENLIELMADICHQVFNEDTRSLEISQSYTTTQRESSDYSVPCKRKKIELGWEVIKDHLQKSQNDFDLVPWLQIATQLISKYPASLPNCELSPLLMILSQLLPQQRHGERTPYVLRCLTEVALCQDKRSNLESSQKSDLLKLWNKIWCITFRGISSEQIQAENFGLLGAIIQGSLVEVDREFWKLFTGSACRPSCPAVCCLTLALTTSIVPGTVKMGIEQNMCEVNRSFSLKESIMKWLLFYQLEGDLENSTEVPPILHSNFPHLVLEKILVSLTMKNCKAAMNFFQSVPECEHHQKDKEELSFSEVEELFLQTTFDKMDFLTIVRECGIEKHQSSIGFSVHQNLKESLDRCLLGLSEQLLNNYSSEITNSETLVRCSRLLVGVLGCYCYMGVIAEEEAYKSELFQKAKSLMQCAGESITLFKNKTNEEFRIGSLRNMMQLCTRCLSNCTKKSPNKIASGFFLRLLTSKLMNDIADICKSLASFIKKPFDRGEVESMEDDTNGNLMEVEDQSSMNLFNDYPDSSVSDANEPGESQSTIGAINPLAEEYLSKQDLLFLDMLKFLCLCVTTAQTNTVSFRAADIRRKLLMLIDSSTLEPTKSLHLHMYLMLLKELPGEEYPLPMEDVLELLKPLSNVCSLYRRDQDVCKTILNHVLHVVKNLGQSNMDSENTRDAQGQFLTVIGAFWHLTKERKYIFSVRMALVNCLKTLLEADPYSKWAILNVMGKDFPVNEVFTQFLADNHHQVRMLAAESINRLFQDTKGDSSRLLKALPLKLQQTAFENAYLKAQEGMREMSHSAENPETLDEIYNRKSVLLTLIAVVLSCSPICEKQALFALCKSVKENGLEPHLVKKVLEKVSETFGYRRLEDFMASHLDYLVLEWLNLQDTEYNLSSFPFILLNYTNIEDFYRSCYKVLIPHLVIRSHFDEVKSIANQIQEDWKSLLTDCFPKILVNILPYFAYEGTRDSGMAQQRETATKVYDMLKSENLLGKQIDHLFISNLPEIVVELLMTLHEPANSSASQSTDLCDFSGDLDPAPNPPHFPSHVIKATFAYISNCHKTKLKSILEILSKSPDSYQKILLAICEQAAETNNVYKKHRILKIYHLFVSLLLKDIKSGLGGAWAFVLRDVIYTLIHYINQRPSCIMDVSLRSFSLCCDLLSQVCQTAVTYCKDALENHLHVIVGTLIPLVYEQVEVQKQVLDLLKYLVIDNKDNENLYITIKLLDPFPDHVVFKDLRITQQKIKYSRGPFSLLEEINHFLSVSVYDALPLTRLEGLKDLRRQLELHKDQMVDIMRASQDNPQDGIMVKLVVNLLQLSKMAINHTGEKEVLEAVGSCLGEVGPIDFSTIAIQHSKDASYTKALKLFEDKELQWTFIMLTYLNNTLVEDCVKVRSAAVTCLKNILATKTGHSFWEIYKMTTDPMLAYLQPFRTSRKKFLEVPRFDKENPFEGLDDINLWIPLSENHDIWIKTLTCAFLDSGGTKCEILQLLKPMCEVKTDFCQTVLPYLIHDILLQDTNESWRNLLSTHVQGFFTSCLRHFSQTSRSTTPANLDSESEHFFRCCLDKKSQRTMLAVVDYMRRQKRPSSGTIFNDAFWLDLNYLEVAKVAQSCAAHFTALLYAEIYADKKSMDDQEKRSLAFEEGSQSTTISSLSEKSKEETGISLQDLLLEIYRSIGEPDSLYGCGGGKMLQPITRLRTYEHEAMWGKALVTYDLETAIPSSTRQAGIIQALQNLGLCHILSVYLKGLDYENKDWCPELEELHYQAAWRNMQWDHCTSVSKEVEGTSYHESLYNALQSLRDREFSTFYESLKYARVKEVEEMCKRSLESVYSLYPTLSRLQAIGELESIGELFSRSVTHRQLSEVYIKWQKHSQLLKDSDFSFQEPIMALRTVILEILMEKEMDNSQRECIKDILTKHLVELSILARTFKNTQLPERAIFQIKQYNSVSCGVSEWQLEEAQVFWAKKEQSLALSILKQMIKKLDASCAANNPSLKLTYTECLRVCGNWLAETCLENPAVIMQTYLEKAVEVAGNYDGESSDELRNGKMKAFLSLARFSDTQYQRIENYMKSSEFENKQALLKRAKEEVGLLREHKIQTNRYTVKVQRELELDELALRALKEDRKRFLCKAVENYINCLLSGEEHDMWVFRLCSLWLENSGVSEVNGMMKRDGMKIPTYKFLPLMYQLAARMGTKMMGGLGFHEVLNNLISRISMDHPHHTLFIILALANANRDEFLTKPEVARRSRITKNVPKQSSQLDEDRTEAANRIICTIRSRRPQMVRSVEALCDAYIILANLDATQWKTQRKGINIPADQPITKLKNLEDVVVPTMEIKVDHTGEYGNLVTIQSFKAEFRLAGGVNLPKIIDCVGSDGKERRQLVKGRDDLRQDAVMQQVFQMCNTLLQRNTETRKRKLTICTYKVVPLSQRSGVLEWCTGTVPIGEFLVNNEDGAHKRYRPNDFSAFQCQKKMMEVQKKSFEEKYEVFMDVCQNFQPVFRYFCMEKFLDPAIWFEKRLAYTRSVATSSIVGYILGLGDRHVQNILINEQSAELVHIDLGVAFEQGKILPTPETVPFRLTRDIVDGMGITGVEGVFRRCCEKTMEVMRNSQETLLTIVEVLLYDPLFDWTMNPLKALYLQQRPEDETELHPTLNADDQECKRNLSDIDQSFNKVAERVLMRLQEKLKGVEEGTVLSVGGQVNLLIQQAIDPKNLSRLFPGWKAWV
T4 sequence (O00329 whole entry): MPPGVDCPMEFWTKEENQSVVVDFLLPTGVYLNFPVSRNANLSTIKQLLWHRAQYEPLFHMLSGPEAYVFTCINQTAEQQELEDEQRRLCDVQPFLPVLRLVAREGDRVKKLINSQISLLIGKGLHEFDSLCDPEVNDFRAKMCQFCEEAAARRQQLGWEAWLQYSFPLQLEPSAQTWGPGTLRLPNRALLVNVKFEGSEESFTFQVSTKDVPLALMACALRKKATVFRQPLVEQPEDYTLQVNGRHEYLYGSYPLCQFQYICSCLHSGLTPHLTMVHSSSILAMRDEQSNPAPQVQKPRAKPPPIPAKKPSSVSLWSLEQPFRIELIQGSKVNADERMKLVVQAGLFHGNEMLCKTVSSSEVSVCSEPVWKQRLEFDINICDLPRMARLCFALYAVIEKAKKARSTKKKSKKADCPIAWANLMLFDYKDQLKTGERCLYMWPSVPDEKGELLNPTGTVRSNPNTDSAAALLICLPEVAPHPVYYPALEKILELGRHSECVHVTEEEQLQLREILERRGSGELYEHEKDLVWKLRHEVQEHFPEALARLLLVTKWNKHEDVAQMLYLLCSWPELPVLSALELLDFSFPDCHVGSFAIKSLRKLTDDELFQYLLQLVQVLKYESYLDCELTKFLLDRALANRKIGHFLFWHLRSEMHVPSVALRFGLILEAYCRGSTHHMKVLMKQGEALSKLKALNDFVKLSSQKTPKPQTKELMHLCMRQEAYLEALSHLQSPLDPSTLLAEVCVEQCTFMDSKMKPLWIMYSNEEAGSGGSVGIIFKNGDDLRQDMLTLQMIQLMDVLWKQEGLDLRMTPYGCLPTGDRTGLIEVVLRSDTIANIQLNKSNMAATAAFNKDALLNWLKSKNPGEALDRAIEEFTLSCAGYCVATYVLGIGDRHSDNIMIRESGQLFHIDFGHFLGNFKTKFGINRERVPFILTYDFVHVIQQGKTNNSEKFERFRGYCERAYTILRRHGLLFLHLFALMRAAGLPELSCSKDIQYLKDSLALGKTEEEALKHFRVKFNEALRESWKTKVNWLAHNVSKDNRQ
T4 sequence (P27986 whole entry partner): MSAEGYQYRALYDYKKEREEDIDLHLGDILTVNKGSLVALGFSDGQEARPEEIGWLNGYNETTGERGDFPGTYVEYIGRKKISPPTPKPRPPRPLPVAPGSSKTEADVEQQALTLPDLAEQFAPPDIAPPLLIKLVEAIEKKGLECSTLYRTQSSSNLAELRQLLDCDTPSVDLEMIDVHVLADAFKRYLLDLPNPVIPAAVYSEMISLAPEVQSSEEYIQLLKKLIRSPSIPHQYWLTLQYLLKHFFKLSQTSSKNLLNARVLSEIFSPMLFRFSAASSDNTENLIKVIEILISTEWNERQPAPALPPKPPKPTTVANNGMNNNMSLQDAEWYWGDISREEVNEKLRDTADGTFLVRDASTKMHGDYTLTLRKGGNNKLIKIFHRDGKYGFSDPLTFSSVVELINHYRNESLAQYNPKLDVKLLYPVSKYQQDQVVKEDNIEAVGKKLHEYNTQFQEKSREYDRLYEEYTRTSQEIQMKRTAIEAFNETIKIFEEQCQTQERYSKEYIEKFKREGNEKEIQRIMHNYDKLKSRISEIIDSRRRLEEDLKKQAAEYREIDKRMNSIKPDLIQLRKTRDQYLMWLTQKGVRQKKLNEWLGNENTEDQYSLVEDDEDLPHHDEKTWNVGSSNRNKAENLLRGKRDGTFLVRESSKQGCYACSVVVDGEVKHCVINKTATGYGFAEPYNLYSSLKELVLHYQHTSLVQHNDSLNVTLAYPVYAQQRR

| Compound | IC50 (ATM) | IC50 (DNA-PK) | IC50 (PI3Kα) | IC50 (PI3Kδ) |
| --- | --- | --- | --- | --- |
| CC(C)NCCOc1ncc(-c2cc3c4c(cnc3cc2F)N(C)C(=O)C42CN(C(C)C)C2)cc1NS(C)(=O)=O [Compound 571, N-(5-(7′-Fluoro-1-isopropyl-3′-methyl-2′-oxo-2′,3′-dihydrospiro[azetidine-3,1′-pyrrolo[2,3-c]quinolin]-8′-yl)-2-(2-(isopropylamino)ethoxy)pyridin-3-yl)methanesulfonamide] | 5.76 nM and 5.51 nM | 0.67 nM and 0.94 nM | 62 nM | – |
| CC(C)NCCOc1ncc(-c2cc3c4c(cnc3cc2F)N(C)C(=O)C42CCC2)cc1NS(C)(=O)=O [Compound 569, N-(5-(7′-Fluoro-3′-methyl-2′-oxo-2′,3′-dihydrospiro[cyclobutane-1,1′-pyrrolo[2,3-c]quinolin]-8′-yl)-2-(2-(isopropylamino)ethoxy)pyridin-3-yl)methanesulfonamide] | 2.43 nM | 0.63 nM | 16 nM | 73 nM |
| CN1C(=O)C2(CCC2)c2c1cnc1ccc(-c3cnc(N4CC(N(C)C)C4)c(NS(C)(=O)=O)c3)cc21 [Compound 574, N-(2-(3-(Dimethylamino)azetidin-1-yl)-5-(3′-methyl-2′-oxo-2′,3′-dihydrospiro[cyclobutane-1,1′-pyrrolo[2,3-c]quinolin]-8′-yl)pyridin-3-yl)methanesulfonamide hydrochloride] | 1.52 nM | 1.03 nM | 0.12 nM | 3 nM |
| CC[C@H]1C[C@@]2(C1)C(=O)N(C)c1cnc3cc(F)c(-c4cnc(OCCNC(C)C)c(NS(C)(=O)=O)c4)cc3c12 [Compound 566, trans-N-(5-(3-Ethyl-7′-fluoro-3′-methyl-2′-oxo-2′,3′-dihydrospiro[cyclobutane-1,1′-pyrrolo[2,3-c]quinolin]-8′-yl)-2-(2-(isopropylamino)ethoxy)pyridin-3-yl)methanesulfonamide] | 6.72 nM | 1.03 nM | > 100 nM | 14 nM |

Next, values leading:

| IC50 (ATM) | IC50 (DNA-PK) | IC50 (PI3Kα) | IC50 (PI3Kδ) | Compound |
| --- | --- | --- | --- | --- |
| 2.88 nM | 0.79 nM | 18 nM | 54 nM | CC(C)NCCOc1ncc(-c2cc3c4c(cnc3cc2F)N(C)C(=O)C42CCC2)cc1NS(=O)(=O)C(C)C [Compound 568, N-(5-(7′-Fluoro-3′-methyl-2′-oxo-2′,3′-dihydrospiro[cyclobutane-1,1′-pyrrolo[2,3-c]quinolin]-8′-yl)-2-(2-(isopropylamino)ethoxy)pyridin-3-yl)propane-2-sulfonamide] |
| 3.6 nM | 0.63 nM | 21 nM | 55 nM | CCS(=O)(=O)Nc1cc(-c2cc3c4c(cnc3cc2F)N(C)C(=O)C42CCC2)cnc1OCCNC(C)C [Compound 570, N-(5-(7′-Fluoro-3′-methyl-2′-oxo-2′,3′-dihydrospiro[cyclobutane-1,1′-pyrrolo[2,3-c]quinolin]-8′-yl)-2-(2-(isopropylamino)ethoxy)pyridin-3-yl)ethanesulfonamide] |
| 1.05 nM | 0.32 nM | 23 nM | 15 nM | CC(C)NCCOc1ncc(-c2cc3c(cc2F)ncc2c3[C@]3(C[C@H](OCc4ccccc4)C3)C(=O)N2C)cc1NS(C)(=O)=O [Compound 572, cis-N-(5-(3-(Benzyloxy)-7′-fluoro-3′-methyl-2′-oxo-2′,3′-dihydrospiro[cyclobutane-1,1′-pyrrolo[2,3-c]quinolin]-8′-yl)-2-(2-(isopropylamino)ethoxy)pyridin-3-yl)methanesulfonamide] |
| 11 nM | 2.7 nM | > 100 nM | > 100 nM | CC(C)NCCOc1ncc(-c2cc3c(cc2F)ncc2c3[C@]3(C[C@@H](OCc4ccccc4)C3)C(=O)N2C)cc1NS(C)(=O)=O [Compound 567, trans-N-(5-(3-(Benzyloxy)-7′-fluoro-3′-methyl-2′-oxo-2′,3′-dihydrospiro[cyclobutane-1,1′-pyrrolo[2,3-c]quinolin]-8′-yl)-2-(2-(isopropylamino)ethoxy)pyridin-3-yl)methanesulfonamide] |
| 0.92 nM | 0.3 nM | 18 nM | 12 nM | CC[C@H]1C[C@]2(C1)C(=O)N(C)c1cnc3cc(F)c(-c4cnc(OCCNC(C)C)c(NS(C)(=O)=O)c4)cc3c12 [Compound 573, cis-N-(5-(3-Ethyl-7′-fluoro-3′-methyl-2′-oxo-2′,3′-dihydrospiro[cyclobutane-1,1′-pyrrolo[2,3-c]quinolin]-8′-yl)-2-(2-(isopropylamino)ethoxy)pyridin-3-yl)methanesulfonamide] |
